ChEMBL document CHEMBL1140860, “Synthesis and evaluation of dihydroartemisinin and dihydroartemisitene acetal dimers showing anticancer and antiprotozoal activity” (Bioorg Med Chem, 2009)
pIC50: −log10 of the molar value.

Experiments:
[1] = Selectivity index, ratio of TC50 for african green monkey (Cercopithecus aethiops) Vero cells to IC50 for chloroquine-sensitive Plasmodium falciparum D6; assay type: toxicity, cell-based
EKVX = experiment: Growth inhibition of human EKVX cells after 48 hrs by sulforhodamine B assay; assay type: functional
SF-539 = experiment: Growth inhibition of human SF539 cells after 48 hrs by sulforhodamine B assay; assay type: functional; conditions: SF-539, 48 h
HT-29 = experiment: Growth inhibition of human HT-29 cells after 48 hrs by sulforhodamine B assay; assay type: functional; conditions: HT-29, 48 h
A549 = experiment: Growth inhibition of human A549 cells after 48 hrs by sulforhodamine B assay; assay type: functional; conditions: A549, 48 h
SNB-19 = experiment: Growth inhibition of human SNB19 cells after 48 hrs by sulforhodamine B assay; assay type: functional; conditions: SNB-19, 48 h
BT-549 = experiment: Growth inhibition of human BT549 cells after 48 hrs by sulforhodamine B assay; assay type: functional; conditions: BT-549, 48 h
T47D = experiment: Growth inhibition of human T47D cells after 48 hrs by sulforhodamine B assay; assay type: functional
MDA-N = experiment: Growth inhibition of human MDA-N cells after 48 hrs by sulforhodamine B assay; assay type: functional
OVCAR-5 = experiment: Growth inhibition of human OVCAR5 cells after 48 hrs by sulforhodamine B assay; assay type: functional; conditions: OVCAR-5, 48 h
U-251 = experiment: Growth inhibition of human U251 cells after 48 hrs by sulforhodamine B assay; assay type: functional; conditions: U-251, 48 h
A498 = experiment: Growth inhibition of human A498 cells after 48 hrs by sulforhodamine B assay; assay type: functional; conditions: A498, 48 h
NCI-H226 = experiment: Growth inhibition of human NCI-H226 cells after 48 hrs by sulforhodamine B assay; assay type: functional; conditions: NCI-H226, 48 h
M14 = experiment: Growth inhibition of human M14 cells after 48 hrs by sulforhodamine B assay; assay type: functional; conditions: M14, 48 h
SF-295 = experiment: Growth inhibition of human SF295 cells after 48 hrs by sulforhodamine B assay; assay type: functional; conditions: SF-295, 48 h
SNB-75 = experiment: Growth inhibition of human SNB75 cells after 48 hrs by sulforhodamine B assay; assay type: functional; conditions: SNB-75, 48 h
SK-MEL-5 = experiment: Growth inhibition of human SK-MEL-5 cells after 48 hrs by sulforhodamine B assay; assay type: functional; conditions: SK-MEL-5, 48 h
SR = experiment: Growth inhibition of human SR cells after 48 hrs by sulforhodamine B assay; assay type: functional
SK-MEL-2 = experiment: Growth inhibition of human SK-MEL-2 cells after 48 hrs by sulforhodamine B assay; assay type: functional; conditions: SK-MEL-2, 48 h
HOP-92 = experiment: Growth inhibition of human HOP92 cells after 48 hrs by sulforhodamine B assay; assay type: functional; conditions: HOP-92, 48 h
K562 = experiment: Growth inhibition of human K562 cells after 48 hrs by sulforhodamine B assay; assay type: functional; conditions: K562, 48 h
SF-268 = experiment: Growth inhibition of human SF268 cells after 48 hrs by sulforhodamine B assay; assay type: functional; conditions: SF-268, 48 h
TK-10 = experiment: Growth inhibition of human TK10 cells after 48 hrs by sulforhodamine B assay; assay type: functional; conditions: TK-10, 48 h
UACC-257 = experiment: Growth inhibition of human UACC257 cells after 48 hrs by sulforhodamine B assay; assay type: functional; conditions: UACC-257, 48 h
LOX IMVI = experiment: Growth inhibition of human LOXIMVI cells after 48 hrs by sulforhodamine B assay; assay type: functional
786-0 = experiment: Growth inhibition of human 786-0 cells after 48 hrs by sulforhodamine B assay; assay type: functional; conditions: 786-0, 48 h
Plasmodium falciparum [2] = experiment: Antimalarial activity after 72 hrs against chloroquine-sensitive Plasmodium falciparum D6 infected in erythrocytes by LDH assay; assay type: functional, organism-based; conditions: D6, 72 h
Malme-3M = experiment: Growth inhibition of human MALME-3M cells after 48 hrs by sulforhodamine B assay; assay type: functional
[3] = Selectivity index, ratio of TC50 for african green monkey (Cercopithecus aethiops) Vero cells to IC50 for chloroquine-resistant Plasmodium falciparum W2; assay type: toxicity, cell-based
OVCAR-4 = experiment: Growth inhibition of human OVCAR4 cells after 48 hrs by sulforhodamine B assay; assay type: functional; conditions: OVCAR-4, 48 h
NCI/ADR-RES = experiment: Growth inhibition of human NCI/ADR-RES cells after 48 hrs by sulforhodamine B assay; assay type: functional
HCT-15 = experiment: Growth inhibition of human HCT15 cells after 48 hrs by sulforhodamine B assay; assay type: functional; conditions: HCT-15, 48 h
NCI-H23 = experiment: Growth inhibition of human NCI-H23 cells after 48 hrs by sulforhodamine B assay; assay type: functional; conditions: NCI-H23, 48 h
RXF 393 = experiment: Growth inhibition of human RXF393 cells after 48 hrs by sulforhodamine B assay; assay type: functional; conditions: RXF 393, 48 h
MDA-MB-231 = experiment: Growth inhibition of human MDA-MB-231 cells after 48 hrs by sulforhodamine B assay; assay type: functional; conditions: MDA-MB-231, 48 h
HOP-62 = experiment: Growth inhibition of human HOP62 cells after 48 hrs by sulforhodamine B assay; assay type: functional; conditions: HOP-62, 48 h
UO-31 = experiment: Growth inhibition of human UO31 cells after 48 hrs by sulforhodamine B assay; assay type: functional; conditions: UO-31, 48 h
NCI-H460 = experiment: Growth inhibition of human NCI-H460 cells after 48 hrs by sulforhodamine B assay; assay type: functional; conditions: NCI-H460, 48 h
MDA-MB-435 = experiment: Growth inhibition of human MDA-MB-435 cells after 48 hrs by sulforhodamine B assay; assay type: functional; conditions: MDA-MB-435, 48 h
MCF7 = experiment: Growth inhibition of human MCF7 cells after 48 hrs by sulforhodamine B assay; assay type: functional; conditions: MCF7, 48 h
HL-60 = experiment: Growth inhibition of human HL-60(TB) cells after 48 hrs by sulforhodamine B assay; assay type: functional; conditions: HL-60, 48 h
UACC-62 = experiment: Growth inhibition of human UACC62 cells after 48 hrs by sulforhodamine B assay; assay type: functional; conditions: UACC-62, 48 h
[4] = Cytotoxicity against african green monkey Vero cells after 48 hrs by neutral red assay; assay type: cell-based; conditions: chlorocebus sabaeus, read-out: TC50
OVCAR-3 = experiment: Growth inhibition of human OVCAR-3 cells after 48 hrs by sulforhodamine B assay; assay type: functional; conditions: OVCAR-3, 48 h
KM12 = experiment: Growth inhibition of human KM12 cells after 48 hrs by sulforhodamine B assay; assay type: functional; conditions: KM12, 48 h
PC-3 = experiment: Growth inhibition of human PC3 cells after 48 hrs by sulforhodamine B assay; assay type: functional; conditions: PC-3, 48 h
MOLT-4 = experiment: Growth inhibition of human MOLT4 cells after 48 hrs by sulforhodamine B assay; assay type: functional; conditions: MOLT-4, 48 h
SW-620 = experiment: Growth inhibition of human SW620 cells after 48 hrs by sulforhodamine B assay; assay type: functional; conditions: SW-620, 48 h
CCRF-CEM = experiment: Growth inhibition of human CCRF-CEM cells after 48 hrs by sulforhodamine B assay; assay type: functional
Plasmodium falciparum [5] = experiment: Antimalarial activity after 72 hrs against chloroquine-resistant Plasmodium falciparum W2 infected erythrocytes by LDH assay; assay type: functional, organism-based; conditions: W2, 72 h

SMILES: C[C@H]1[C@@H](O[C@H]2CC[C@@H](O[C@H]3O[C@@H]4O[C@@]5(C)CC[C@H]6[C@H](C)CC[C@@H]([C@H]3C)[C@@]46OO5)CC2)O[C@@H]2O[C@@]3(C)CC[C@H]4[C@H](C)CC[C@@H]1[C@@]24OO3
- selectivity ratio [1]: > 1590
- GI50 (EKVX): 0.024 µM
- GI50 (SF-539): 0.02 µM
- GI50 (HT-29): 0.026 µM
- GI50 (A549): 0.02 µM
- GI50 (SNB-19): 0.099 µM
- GI50 (BT-549): 0.042 µM
- GI50 (T47D): < 0.005 µM
- GI50 (MDA-N): 0.024 µM
- GI50 (OVCAR-5): 0.152 µM
- GI50 (U-251): 0.019 µM
- GI50 (A498): 0.04 µM
- GI50 (NCI-H226): 0.347 µM
- GI50 (M14): 0.027 µM
- GI50 (SF-295): 0.028 µM
- GI50 (SNB-75): 0.03 µM
- GI50 (SK-MEL-5): 0.017 µM
- GI50 (SR): 0.014 µM
- GI50 (SK-MEL-2): 0.024 µM
- GI50 (HOP-92): 0.017 µM
- GI50 (K562): 0.014 µM
- GI50 (SF-268): 0.034 µM
- GI50 (TK-10): 0.029 µM
- GI50 (UACC-257): 0.027 µM
- GI50 (LOX IMVI): 0.017 µM
- GI50 (786-0): 0.031 µM
- pIC50 (Plasmodium falciparum [2]): 5.34
- GI50 (Malme-3M): 0.044 µM
- selectivity ratio [3]: > 915
- GI50 (OVCAR-4): 0.024 µM
- GI50 (NCI/ADR-RES): 0.077 µM
- GI50 (HCT-15): 0.014 µM
- GI50 (NCI-H23): 0.022 µM
- GI50 (RXF 393): 0.018 µM
- GI50 (MDA-MB-231): 0.092 µM
- GI50 (HOP-62): 12.3 µM
- GI50 (UO-31): 0.018 µM
- GI50 (NCI-H460): 0.017 µM
- GI50 (MDA-MB-435): 0.028 µM
- GI50 (MCF7): 0.016 µM
- GI50 (HL-60): 0.017 µM
- GI50 (UACC-62): 0.022 µM
- CC50 at 48 h [4]: > 7340 µM
- GI50 (OVCAR-3): 0.015 µM
- GI50 (KM12): 0.012 µM
- GI50 (PC-3): 0.011 µM
- GI50 (MOLT-4): 0.02 µM
- GI50 (SW-620): 0.012 µM
- GI50 (CCRF-CEM): < 0.005 µM
- pIC50 (Plasmodium falciparum [5]): 5.10

SMILES: C[C@H]1[C@@H](OCCO[C@H]2O[C@@H]3O[C@@]4(C)CC[C@H]5[C@H](C)CC[C@@H]([C@H]2C)[C@@]35OO4)O[C@@H]2O[C@@]3(C)CC[C@H]4[C@H](C)CC[C@@H]1[C@@]24OO3
- selectivity ratio [1]: > 48
- GI50 (EKVX): 0.146 µM
- GI50 (SF-539): 0.3 µM
- GI50 (HT-29): 0.041 µM
- GI50 (A549): 0.063 µM
- GI50 (SNB-19): > 100 µM
- GI50 (BT-549): 14.3 µM
- GI50 (T47D): 0.015 µM
- GI50 (MDA-N): 0.219 µM
- GI50 (OVCAR-5): 0.083 µM
- GI50 (U-251): 0.267 µM
- GI50 (A498): 77.2 µM
- GI50 (NCI-H226): 0.321 µM
- GI50 (M14): 0.183 µM
- GI50 (SF-295): 0.8 µM
- GI50 (SNB-75): 0.887 µM
- GI50 (SK-MEL-5): 0.316 µM
- GI50 (SR): 0.077 µM
- GI50 (SK-MEL-2): 0.243 µM
- GI50 (HOP-92): 0.149 µM
- GI50 (K562): 0.014 µM
- GI50 (SF-268): 0.46 µM
- GI50 (TK-10): 0.206 µM
- GI50 (UACC-257): 0.343 µM
- GI50 (LOX IMVI): 0.072 µM
- GI50 (786-0): 0.305 µM
- pIC50 (Plasmodium falciparum [2]): 5.77
- GI50 (Malme-3M): 0.504 µM
- selectivity ratio [3]: > 64
- GI50 (OVCAR-4): 0.036 µM
- GI50 (NCI/ADR-RES): 0.243 µM
- GI50 (HCT-15): 0.019 µM
- GI50 (NCI-H23): 1.15 µM
- GI50 (RXF 393): 10.6 µM
- GI50 (MDA-MB-231): 15 µM
- GI50 (HOP-62): 0.107 µM
- GI50 (UO-31): 0.469 µM
- GI50 (NCI-H460): 0.15 µM
- GI50 (MDA-MB-435): 0.572 µM
- GI50 (MCF7): 0.034 µM
- GI50 (HL-60): 0.029 µM
- GI50 (UACC-62): 0.343 µM
- CC50 at 48 h [4]: > 80 µM
- GI50 (KM12): 0.081 µM
- GI50 (PC-3): 0.01 µM
- GI50 (MOLT-4): 0.042 µM
- GI50 (SW-620): 0.07 µM
- GI50 (CCRF-CEM): 0.068 µM
- pIC50 (Plasmodium falciparum [5]): 5.92
